Holding throughout (settings): average where tested multiple times
Assay [1] concerns the target T1, BCAT2 (Homo sapiens, UniProt O15382).
T1 sequence (O15382 28-392): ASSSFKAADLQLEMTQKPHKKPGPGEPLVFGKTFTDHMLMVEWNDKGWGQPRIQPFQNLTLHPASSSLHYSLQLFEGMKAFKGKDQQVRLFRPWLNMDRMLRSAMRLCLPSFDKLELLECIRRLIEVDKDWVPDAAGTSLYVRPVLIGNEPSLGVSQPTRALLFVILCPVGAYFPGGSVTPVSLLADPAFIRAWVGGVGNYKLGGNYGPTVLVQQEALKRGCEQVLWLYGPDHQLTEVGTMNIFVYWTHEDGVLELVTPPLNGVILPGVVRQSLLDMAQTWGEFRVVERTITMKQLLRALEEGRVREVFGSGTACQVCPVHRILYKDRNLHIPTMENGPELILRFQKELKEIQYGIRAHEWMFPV
Nature of the assay: BCAT2 in vitro cell inhibition using engineered A549 cells (KMV cell assay, 13C6-KMV by LC-MS/MS). The format is cell-based. The arrangement: The result was an engineered A549 cell line that expressed endogenous BCAT2; endogenous in cells; host or cells: A549 cells with MUT and BCAT1 knocked out by CRISPR/CAS9; key to BCAT2 Cell Inhibition: A: less than or equal to 0.100 μM; B: greater than 0.100 and less than or equal to 0.500 μM; C: greater than 0.500 and less than or equal to 1.000 μM; d: greater than 1.000 μM; E: no fit.

The next assay concerns the target T2, hBCAT1 (Homo sapiens, UniProt P54687).
T2 sequence (P54687 1-386): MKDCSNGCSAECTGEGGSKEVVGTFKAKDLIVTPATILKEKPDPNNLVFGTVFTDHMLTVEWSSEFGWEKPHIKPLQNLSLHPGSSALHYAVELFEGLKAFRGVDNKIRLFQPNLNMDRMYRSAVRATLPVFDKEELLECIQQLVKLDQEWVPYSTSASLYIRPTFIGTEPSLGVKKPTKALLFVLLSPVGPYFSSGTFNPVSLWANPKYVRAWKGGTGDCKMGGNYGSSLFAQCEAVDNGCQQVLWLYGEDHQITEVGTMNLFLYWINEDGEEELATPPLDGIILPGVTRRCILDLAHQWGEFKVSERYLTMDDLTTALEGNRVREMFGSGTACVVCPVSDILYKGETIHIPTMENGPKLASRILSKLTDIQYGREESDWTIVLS
Nature of the assay: BCAT1 in vitro enzyme inhibition assay (resazurin/diaphorase-coupled fluorescence). The format is biochemical. In short, it runs like this:
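Ten-point, 3-fold compound series (top final 100 μM, delivered 1:50 from 50× DMSO stocks) tested against hBCAT1. Inhibition detected via diaphorase-coupled resazurin fluorescence, duplicate wells, with values from repeated runs averaged.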
In general terms: Resazurin is reduced to fluorescent resorufin, in cell work by metabolically active cells.

The target of assay [2] is T1, BCAT2. The assay is described as follows: BCAT2 in vitro enzyme inhibition assay (resazurin/diaphorase-coupled fluorescence). It is filed as biochemical. The essentials: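 Coupled fluorescence readout: glutamate formed from L-leucine/α-ketoglutarate transamination drives GDH/NAD/diaphorase reduction of resazurin (Ex 540/Em 590). Human BCAT2 was first exposed 1 h at room temperature to compound, top final 100 μM in 3-fold, 10-point series; substrate reaction ran 1 h before SDS quench, in technical duplicate with DMSO max and enzyme-free min controls.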

In the case of `O=C(N[C@H]1CCCC[C@@H](n2c(-c3ccccc3F)nc3cnc(-c4nnc[nH]4)cc32)C1)c1ncc(Cl)s1` (single isomer, unassigned) [Example 88, 5-chloro-N-(3-(2-(2-fluorophenyl)-6-(4H-1,2,4-triazol-3-yl)-1H-imidazo[4,5-c]pyridin-1-yl)cycloheptyl)thiazole-2-carboxamide], the IC50 on BCAT2 [1] was at most 100 nM; on hBCAT1, below 500 nM; against BCAT2 [2] it was at most 100 nM.

For the compound `O=C(N[C@H]1CCC[C@@H](n2c(-c3ccccc3F)nc3cnc(-c4ncccc4F)cc32)C1)c1ncc(Cl)s1` [Example 169, 5-chloro-N-((1S,3R)-3-(2-(2-fluorophenyl)-6-(3-fluoropyridin-2-yl)-1H-imidazo[4,5-c]pyridin-1-yl)cyclohexyl)thiazole-2-carboxamide], the IC50 at BCAT2 [1] was at most 100 nM; against hBCAT1 it was below 500 nM; against BCAT2 [2], at most 100 nM.

Consider `O=C(N[C@H]1CCC[C@@H](n2c(-c3ccccn3)nc3cnc(-n4ccnn4)cc32)C1)c1ccc(Br)s1` [Example 10, 5-bromo-N-((1S,3R)-3-(2-(pyridin-2-yl)-6-(1H-1,2,3-triazol-1-yl)-1H-imidazo[4,5-c]pyridin-1-yl)cyclohexyl)thiophene-2-carboxamide], for which the IC50 against BCAT2 [1] was 500 to 1000 nM; against hBCAT1, 1000 to 5000 nM; against BCAT2 [2], at most 100 nM.

`O=C(N[C@H]1CCC[C@@H](n2c(-c3ncccc3F)nc3cnc(-c4nc[nH]n4)cc32)C1)c1ccc(Cl)s1` [Example 80, 5-chloro-N-((1S,3R)-3-(2-(3-fluoropyridin-2-yl)-6-(1H-1,2,4-triazol-3-yl)-1H-imidazo[4,5-c]pyridin-1-yl)cyclohexyl)thiophene-2-carboxamide]: the IC50 at BCAT2 [1] is at most 100 nM; against hBCAT1, below 500 nM; on BCAT2 [2], at most 100 nM.

Turning to `O=C(N[C@H]1CCC[C@@H](n2c(-c3ncccc3F)nc3cnc(-n4nccn4)cc32)C1)c1ccc(Br)s1` [Example 13, 5-bromo-N-((1S,3R)-3-(2-(3-fluoropyridin-2-yl)-6-(2H-1,2,3-triazol-2-yl)-1H-imidazo[4,5-c]pyridin-1-yl)cyclohexyl)thiophene-2-carboxamide], the concentration for half-maximal inhibition (IC50) against BCAT2 [1] is at most 100 nM; on hBCAT1, below 500 nM; at BCAT2 [2] it was at most 100 nM.

As for `O=C(NC1CC(O)CC(n2c(-c3ccccc3F)nc3cnc(-c4nnc[nH]4)cc32)C1)c1ncc(Cl)s1` (stereo not drawn) [Example 115, 5-chloro-N-(3-(2-(2-fluorophenyl)-6-(4H-1,2,4-triazol-3-yl)-1H-imidazo[4,5-c]pyridin-1-yl)-5-hydroxycyclohexyl)thiazole-2-carboxamide], the IC50 against BCAT2 [1] is at most 100 nM; on hBCAT1, below 500 nM; at BCAT2 [2] it was at most 100 nM.

In the case of `Nc1cccc(-c2cc3c(cn2)nc(-c2ccccc2F)n3[C@@H]2CCC[C@H](NC(=O)c3ncc(Cl)s3)C2)n1` [Example 105, N-((1S,3R)-3-(6-(6-aminopyridin-2-yl)-2-(2-fluorophenyl)-1H-imidazo[4,5-c]pyridin-1-yl)cyclohexyl)-5-chlorothiazole-2-carboxamide], the half-inhibitory concentration (IC50) was at most 100 nM against BCAT2 [1], below 500 nM at hBCAT1 and at most 100 nM against BCAT2 [2].

As for `CC(C)Cc1nc2cnc(-c3nc[nH]n3)cc2n1[C@@H]1CCC[C@H](NC(=O)c2ccc(C#N)s2)C1` [Example 344, 5-cyano-N-((1S,3R)-3-(2-isobutyl-6-(1H-1,2,4-triazol-3-yl)-1H-imidazo[4,5-c]pyridin-1-yl)cyclohexyl)thiophene-2-carboxamide], the half-inhibitory concentration (IC50) at BCAT2 [1] was at most 100 nM; against hBCAT1, below 500 nM; at BCAT2 [2], at most 100 nM.

As for `O=C(N[C@H]1C[C@H](O)C[C@@H](n2c(-c3ccccc3F)nc3cnc(F)cc32)C1)c1ncc(Cl)s1` [Example 276, 5-chloro-N-((1R,3S,5S)-3-(6-fluoro-2-(2-fluorophenyl)-1H-imidazo[4,5-c]pyridin-1-yl)-5-hydroxycyclohexyl)thiazole-2-carboxamide], the concentration for half-maximal inhibition (IC50) is at most 100 nM against BCAT2 [1], below 500 nM against hBCAT1 and at most 100 nM at BCAT2 [2].

As to `CO[C@@H]1C[C@@H](NC(=O)c2ncc(Cl)s2)C[C@@H](n2c(-c3ccccc3F)nc3cnc(-n4cncn4)cc32)C1` (stereo in doubt) [Example 416, 5-chloro-N-((1S,3R,5R)-3-(2-(2-fluorophenyl)-6-(1H-1,2,4-triazol-1-yl)-1H-imidazo[4,5-c]pyridin-1-yl)-5-methoxycyclohexyl)thiazole-2-carboxamide], the IC50 was at most 100 nM against BCAT2 [1], 1000 to 5000 nM against hBCAT1 and at most 100 nM at BCAT2 [2].

As to `Cc1cnn(-c2cc3c(cn2)nc(-c2ccccc2F)n3[C@@H]2CCC[C@H](NC(=O)c3ncc(Cl)s3)[C@H]2O)n1` [Example 246, 5-chloro-N-((1S,2R,3R)-3-(2-(2-fluorophenyl)-6-(4-methyl-2H-1,2,3-triazol-2-yl)-1H-imidazo[4,5-c]pyridin-1-yl)-2-hydroxycyclohexyl)thiazole-2-carboxamide], the results for the half-inhibitory concentration (IC50) at BCAT2 [1], against hBCAT1 and against BCAT2 [2] were at most 100 nM, below 500 nM and at most 100 nM, respectively.

Take `C#Cc1cnc(C(=O)N[C@H]2CCC[C@@H](n3c(-c4ccccn4)nc4cnc(-n5ccnn5)cc43)C2)s1` [Example 33, 5-ethynyl-N-((1S,3R)-3-(2-(pyridin-2-yl)-6-(1H-1,2,3-triazol-1-yl)-1H-imidazo[4,5-c]pyridin-1-yl)cyclohexyl)thiazole-2-carboxamide]: the results for the IC50 on BCAT2 [1], against hBCAT1 and on BCAT2 [2] were 500 to 1000 nM, 1000 to 5000 nM and at most 100 nM, respectively.

Turning to `CC(C)[C@H](N)c1nc2cnc(-c3ccccn3)cc2n1[C@@H]1CCC[C@H](NC(=O)c2ncc(Cl)s2)C1` [Example 166, N-((1S,3R)-3-(2-((S)-1-amino-2-methylpropyl)-6-(pyridin-2-yl)-1H-imidazo[4,5-c]pyridin-1-yl)cyclohexyl)-5-chlorothiazole-2-carboxamide], the 50% inhibitory concentration (IC50) at BCAT2 [1] is 100 to 500 nM; at hBCAT1, below 500 nM; at BCAT2 [2], at most 100 nM.

As to `CC(C)[C@@H](O)c1nc2cnc(-c3ncccn3)cc2n1[C@@H]1CCC[C@H](NC(=O)c2ncc(Cl)s2)C1` [Example 172, 5-chloro-N-((1S,3R)-3-(2-((R)-1-hydroxy-2-methylpropyl)-6-(pyrimidin-2-yl)-1H-imidazo[4,5-c]pyridin-1-yl)cyclohexyl)thiazole-2-carboxamide], the values for the 50% inhibitory concentration (IC50) against BCAT2 [1], at hBCAT1 and on BCAT2 [2] were 500 to 1000 nM, below 500 nM and at most 100 nM, respectively.

Consider `CC(C)Cc1nc2cnc(-c3cc4ccccc4o3)cc2n1[C@@H]1CCC[C@H](NC(=O)c2ncc(Cl)s2)C1` [Example 320, N-((1S,3R)-3-(6-(benzofuran-2-yl)-2-isobutyl-1H-imidazo[4,5-c]pyridin-1-yl)cyclohexyl)-5-chlorothiazole-2-carboxamide], for which the “BCAT2 Cell Inhibition” value at BCAT2 [1] is on record as “E”. Besides, the IC50 against hBCAT1 lay within 1000 to 5000 nM; on BCAT2 [2] it was 100 to 500 nM.

As for `CC(C)(F)Cc1nc2cnc(-c3ccccn3)cc2n1[C@@H]1CCC[C@H](NC(=O)c2ncc(Cl)s2)C1` [Example 302, 5-chloro-N-((1S,3R)-3-(2-(2-fluoro-2-methylpropyl)-6-(pyridin-2-yl)-1H-imidazo[4,5-c]pyridin-1-yl)cyclohexyl)thiazole-2-carboxamide], the IC50 against BCAT2 [1] was 100 to 500 nM; on hBCAT1, 500 to 1000 nM; on BCAT2 [2], at most 100 nM.

As for `CN1C[C@H](NC(=O)c2ncc(Cl)s2)C[C@H](n2c(-c3ccccc3F)nc3cnc(-c4nc[nH]n4)cc32)C1` (single isomer, unassigned) [Example 134], the IC50 against BCAT2 [1] was at most 100 nM; against hBCAT1, below 500 nM; at BCAT2 [2], at most 100 nM.

For the compound `O=C(N[C@H]1CCC[C@@H](n2c(-c3ccccn3)nc3cnc(-n4nccn4)cc32)C1)c1ncc(Br)s1` [Example 19, 5-bromo-N-((1S,3R)-3-(2-(pyridin-2-yl)-6-(2H-1,2,3-triazol-2-yl)-1H-imidazo[4,5-c]pyridin-1-yl)cyclohexyl)thiazole-2-carboxamide], the concentration for half-maximal inhibition (IC50) at BCAT2 [1] was at most 100 nM; against hBCAT1, below 500 nM; against BCAT2 [2] it was at most 100 nM.

As usually defined, the IC50 is the concentration that inhibits the measured activity by half.

The record behind these values is US20260159512A1, “BCAT2 INHIBITORS” (AGIOS PHARMACEUTICALS, INC., priority 2021, published 2026).
